This note sets out measurements from patent publication US20200360331A1, “COMPOSITIONS COMPRISING 15-HEPE AND/OR 15-HETrE AND METHODS OF TREATING OR PREVENTING CARDIOMETABOLIC DISEASE, METABOLIC SYNDROME, AND/OR RELATED DISEASES” (Afimmune Limited, priority 2019, published 2020).

Molecules are shown by their SMILES. “Also recorded” adds a separate entry of the source.

Data set [1] has as its system TβR-II (type II TGF-β receptor). The data set can be described thus: Sucrose density gradient analysis in Mv1Lu cells, TβR-II. As to conditions: summary, free acid or ethyl ester form. It counts as cell-based, mink. As for the experimental part:
Sucrose gradient ultracentrifugation and confocal microscopy were used to identify 15-HEPE induced microdomain translocation of TGF-β receptors by sucrose. Sucrose density gradient analysis of TGF-β receptors was conducted in the plasma membranes of Mv1Lu cells (mink lung epithelial cell) treated with 100 μM of 15-HEPE and an equal volume of DMSO (dimethyl sulfoxide) at 37° C. for 0, 1, 4, and 24 hours, and the cell lysates from these treated cells were subjected to sucrose density gradient ultracentrifugation. The sucrose gradient fractions were then analyzed by Western blot analysis using anti-TβR-I (type I TGF-β receptor), anti-TβR-II (type II TGF-β receptor), anti-TβR-III (type III TGF-β receptor, betaglycan), anti-EGFR (epidermal growth factor receptor), and anti-caveolin-1 antibodies. The lipid raft/caveolae, and non-lipid raft microdomain localization of TβR-I, TβR-II, TβR-III, EGFR and caveolin-1 in the plasma membrane of untreated cells or cells treated with 15-HEPE were assessed to determine the effects of 15-HEPE on the membrane microdomain localization of the TGF-β receptors.
A 15-HEPE sucrose density gradient analysis of TGF-β receptors was conducted in the plasma membranes of mink lung epithelial cell (Mv1 Lu) cells treated with 100 μM of 15-HEPE and an equal volume of dimethyl sulfoxide (DMSO) at 37° C. for 0, 1, 4, and 24 hours, and the cell lysates from these treated cells were subjected to sucrose density gradient ultracentrifugation. The sucrose gradient fractions were then analyzed by Western blot analysis using anti-TβR-I (type I TGF-β receptor—FIG. 18C), anti-TβR-II (type II TGF-β receptor—FIG. 18D), anti-TβR-III (type III TGF-β receptor, betaglycan—FIG. 18E), anti-EGFR (epidermal growth factor receptor—FIG. 18F), and anti-caveolin-1 antibodies (FIG. 18G). Fractions 4 to 5 contained lipid rafts/caveolae whereas fractions 7-10 were non-lipid raft fractions. […] Stars (★) indicate 15-HEPE increased abundance of TβR-I (24 hours) in the fraction in comparison with that of the control and shorter treatment durations (FIG. 18C). […] The triangles (▾) indicate translocation and decreased abundance of TβR-II in the fraction in comparison with control cells (FIG. 18D).

Data set [2] has as its system TGF-β-stimulated intracellular signaling (SMAD2/3 phosphorylation). The data set can be described thus: TGF-β-stimulated SMAD2/3 phosphorylation in LX2 liver stellate cells. As to conditions: 0 μM to 100 μM for 24 hours, then 30 min TGF-β stimulation. Type of data set: cell-based, human.
Data set [3] concerns TGF-β induced epithelial mesenchymal transition (EMT) protein production. The data set can be described thus: TGF-β induced EMT protein production in HepG2 cells. It counts as cell-based, human. Particulars: increasing doses for 1 hour, then 200 pM TGF-β for 48 hours. Here is the method: The effects of 15-HEPE on TGF-β-induced signaling and cellular responses were determined. To test the effect of 15-HEPE on TGF-β-induced signaling, the activities of 15-HEPE to regulate TGF-β-stimulated Smad2 phosphorylation and nuclear translocation, both of which are key signaling events leading to TGF-β-induced cellular responses, were tested. One important biological activity of TGF-β is transcriptional activation of genes responsible for epithelial-mesenchymal transition (EMT), which is a crucial event in wound healing, tissue fibrosis, and cancer progression. The effect of 15-HEPE on TGFβ-induced epithelial mesenchymal transition related proteins (such as fibronectin, PAI-1, and N-cadherin etc.) expression in HepG2 and […] cells were assessed. HepG2 cells (human hepatoma cell line) were treated in increasing doses of 15-HEPE stage II in DMEM containing 0.1% of FBS for 1 hour and continually stimulated with or without 200 picomolar (pM) of TGF-β for 48 hours.
HepG2 cells (human hepatoma cell line) were treated in increasing doses of 15-HEPE stage II in DMEM containing 0.1% of FBS for 1 hour and continually stimulated with or without 200 picomolar (pM) of TGF-β for 48 hours. The two panels shown in FIG. 18A are two separate experiments run under the same experimental conditions.

Data set [4] in a line: UUO study: body weight, kidney weight, general condition. It counts as in vivo. Particulars: UUO mice. As for the experimental part:
UUO Surgery: On day 0 of the study, UUO surgery was performed on mice under pentobarbital sodium anesthesia. The mouse's hair was first shaved and then abdomen cut open to exteriorize the mouse's left ureter. The ureter was ligated 4-0 nylon sutures at two points. The mouse's peritoneum and skin were then closed with sutures, and the mouse transferred to a clean cage until recovered from the anesthesia. Sham operated mice had their left ureter exposed but not ligated. […]
Animals: Seven-week-old female C57BL/6 mice (i.e., animals) were obtained from Japan SLC, Inc. (Japan) and were housed and fed with a normal diet (CE-2; CLEA Japan, Japan) under controlled conditions. The animals were maintained in a specific-pathogen free (SPF) facility under controlled conditions of temperature (e.g., 23±2° C.), humidity (e.g., 45±10%), lighting (e.g., 12-hour artificial light and dark cycles; light from 8:00 to 20:00) and air exchange. A high pressure was maintained in the experimental room to prevent contamination of the facility. The animals were housed in TPX cages (CLEA Japan) with a maximum of 4 mice per cage. Sterilized Paper-Clean (Japan SLC) was used for bedding and replaced once a week. Sterilized solid normal diet was provided ad libitum, being placed in a metal lid on the top of the cage. Pure water was also provided ad libitum from a water bottle equipped with a rubber stopper and a sipper tube. Water bottles were replaced once a week, cleaned, and sterilized in an autoclave and reused. Mice were identified by ear punch and each cage was labeled with a specific identification code.
Animal Monitoring and Sacrifice: The viability, clinical signs and behavior for the mice were monitored daily. Individual body weight was measured daily before treatment during the treatment period. […] The animals were sacrificed by exsanguination through direct cardiac puncture under isoflurane anesthesia (Pfizer Inc.) at Day 14.

In data set [5] the test system is UUO mice. The data set can be described thus: UUO study: kidney hydroxyproline content. Type of data set: in vivo, C57BL/6 mice. Here is the method:
(§1) UUO Surgery: On day 0 of the study, UUO surgery was performed on mice under pentobarbital sodium anesthesia. The mouse's hair was first shaved and then abdomen cut open to exteriorize the mouse's left ureter. The ureter was ligated 4-0 nylon sutures at two points. The mouse's peritoneum and skin were then closed with sutures, and the mouse transferred to a clean cage until recovered from the anesthesia. Sham operated mice had their left ureter exposed but not ligated.
Measurement of Kidney Biochemistry: To quantify kidney hydroxyproline content, frozen left kidney samples were processed by an alkaline-acid hydrolysis method as follows: kidney samples were dissolved in 2 normal (N) sodium hydroxide (NaOH) at 65° C. and autoclaved at 121° C. for 20 minutes. The lysed samples (400 μL) were acid-hydrolyzed with 400 μL of 6N hydrochloride acid (HCl) at 121° C. for 20 minutes, and neutralized with 400 μL of 4N NaOH containing 10 mg/mL of activated carbon. An AC buffer (e.g., 2.2M acetic acid/0.48M citric acid, 400 μL) was added to the samples, followed by centrifugation to collect the supernatant. A standard curve of hydroxyproline was constructed with serial dilutions of trans-4-hydroxy-L-proline (Sigma-Aldrich, USA) starting at 16 μg/mL. The prepared samples and standards (e.g., each 400 μL) were mixed with 400 μL chloramine T solution (Wako Pure Chemical Industries, Japan) and incubated for 25 minutes at room temperature. The samples were then mixed with Ehrlich's solution (e.g., 400 μL) and heated at 65° C. for 20 minutes to develop the color. After samples were cooled on ice and centrifuged to remove precipitates, the optical density of each supernatant was measured at 560 nanometers (nm). The concentrations of hydroxyproline were calculated from the hydroxyproline standard curve. Protein concentrations of kidney samples were determined using a bicinchoninic (BCA) protein assay kit (Thermo Fisher Scientific, USA) and used to normalize the calculated hydroxyproline values. Kidney hydroxyproline contents were expressed as microgram (μg) per mg protein.

Data set [6] has as its system UUO mice. The data set can be described thus: UUO study: Sirius red staining of kidney sections, fibrosis area. Type of data set: in vivo, C57BL/6 mice. As to conditions: for Sirius red-positive area: kidney. As for the experimental part: as §1
Histopathological analysis: To visualize collagen deposition, kidney sections were stained using picro-Sirius red solution (Waldeck, Germany). For quantification of interstitial fibrosis area, bright field images in the corticomedullary region were captured using a digital camera (e.g., DFC295; Leica Microsystems, Germany) at 200-fold magnification, and the positive areas in 5 fields/section were measured using ImageJ software (National Institute of Health, USA).

[7] abbreviates: 50 mg/kg PO QD Day 0-13, Day 14.
Where [8] appears, read: 250 mg/kg PO QD Day 0-13, Day 14.

For `CCC=CCC(O)C=CC=CCC=CCC=CCCCC(=O)OCC` (stereo not shown) [15-HEPE EE], the “translocation and degradation of type II TGF-β receptors” value in data set [1] is “induced translocation and degradation of type II TGF-β receptors”. In addition, the “TGF-β-stimulated intracellular signaling (SMAD2/3 phosphorylation)” value in data set [2] is recorded as “inhibited TGF-β induced intracellular signaling (SMAD2/3)”. In addition, the “TGF-β induced EMT (pro-fibrotic) protein production” value in data set [3] was “blocked TGF-β induced pro-fibrotic protein production”.

Take `CCCCCC(O)/C=C/C=C\C/C=C\CCCCCCC(=O)O` (stereo not shown) [DS109, 15-hydroxy-eicosa-8Z,11Z,13E-trienoic acid]: the “Body Weight” value stood at 19.1 ± 0.9 g in data set [4] (5 mg/kg PO QD Day 0-13, Day 14); 18.6 ± 0.6 g in data set [4] (setting [7]); 18.6 ± 0.7 g in data set [4] (setting [8]). Besides, the “kidney hydroxyproline contents compared with the Vehicle group” value in the data set with UUO mice [5] (5 mg/kg) is “significant decreases”; with UUO mice [5] (50 mg/kg) it was “no significant difference”; in the data set on UUO mice [5] (250 mg/kg), “significant decreases”. Besides, the Kidney hydroxyproline is reported as 9.94 ± 2.02 μg/mg total protein with UUO mice [5] (5 mg/kg PO QD Day 0-13, Day 14); 13.94 ± 6.44 μg/mg total protein with UUO mice [5] (setting [7]); 8.30 ± 1.04 μg/mg total protein in the data set on UUO mice [5] (setting [8]). Further, the “fibrosis area compared with the Vehicle group” value with UUO mice [6] (5 mg/kg, Mann-Whitney U test (p<0.1)) was “tended to decrease; also recorded: reduction trend”; in the data set with UUO mice [6] (50 mg/kg, Bonferroni Multiple Comparison), “tended to decrease”; with UUO mice [6] (50 mg/kg, Mann-Whitney U test (p<0.1)) it was “tended to decrease; also recorded: reduction trend”; in the data set with UUO mice [6] (250 mg/kg, Mann-Whitney U test (p<0.1)), “tended to decrease; also recorded: reduction trend”. The Sirius red-positive area with UUO mice [6] (5 mg/kg PO QD Day 0-13, Day 14) was found to be 4.23 ± 1.90%; in the data set with UUO mice [6] (setting [7]), 3.58 ± 1.04%; in the data set with UUO mice [6] (setting [8]) it was 4.71 ± 0.96%.
